Laboratory results from ChEMBL document CHEMBL5465560, “Selectivity Literature for EUbOPEN Chemogenomic Library” (2024).
One block for each molecule: values may come before it.

Tests used:
[1] = target: T1, Casein kinase I isoform alpha-like (Homo sapiens) (UniProt Q8N752); assay: Selectivity interaction (Ambit KINOMEscan and KiNATiv profiling in Jurkat cells) EUB0000090b CSNK1A1L; assay type: cell-based; conditions: at 1 µM
T1 sequence (whole entry): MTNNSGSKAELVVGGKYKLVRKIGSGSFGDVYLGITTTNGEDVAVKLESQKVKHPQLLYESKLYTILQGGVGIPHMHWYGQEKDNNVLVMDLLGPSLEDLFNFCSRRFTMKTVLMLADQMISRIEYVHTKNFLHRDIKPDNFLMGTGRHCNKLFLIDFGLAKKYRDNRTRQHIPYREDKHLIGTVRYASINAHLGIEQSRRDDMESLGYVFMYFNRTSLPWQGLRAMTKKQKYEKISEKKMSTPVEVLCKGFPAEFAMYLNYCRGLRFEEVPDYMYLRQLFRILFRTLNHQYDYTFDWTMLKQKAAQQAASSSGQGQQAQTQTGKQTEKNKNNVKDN

[2] = target: Serine/threonine-protein kinase MARK2 (Homo sapiens) (UniProt Q7KZI7); assay: Selectivity interaction (Millipore kinase profiler) EUB0000124b MARK2; conditions: at 10 µM
Serine/threonine-protein kinase MARK2 (Homo sapiens), sequence (Q7KZI7 whole entry): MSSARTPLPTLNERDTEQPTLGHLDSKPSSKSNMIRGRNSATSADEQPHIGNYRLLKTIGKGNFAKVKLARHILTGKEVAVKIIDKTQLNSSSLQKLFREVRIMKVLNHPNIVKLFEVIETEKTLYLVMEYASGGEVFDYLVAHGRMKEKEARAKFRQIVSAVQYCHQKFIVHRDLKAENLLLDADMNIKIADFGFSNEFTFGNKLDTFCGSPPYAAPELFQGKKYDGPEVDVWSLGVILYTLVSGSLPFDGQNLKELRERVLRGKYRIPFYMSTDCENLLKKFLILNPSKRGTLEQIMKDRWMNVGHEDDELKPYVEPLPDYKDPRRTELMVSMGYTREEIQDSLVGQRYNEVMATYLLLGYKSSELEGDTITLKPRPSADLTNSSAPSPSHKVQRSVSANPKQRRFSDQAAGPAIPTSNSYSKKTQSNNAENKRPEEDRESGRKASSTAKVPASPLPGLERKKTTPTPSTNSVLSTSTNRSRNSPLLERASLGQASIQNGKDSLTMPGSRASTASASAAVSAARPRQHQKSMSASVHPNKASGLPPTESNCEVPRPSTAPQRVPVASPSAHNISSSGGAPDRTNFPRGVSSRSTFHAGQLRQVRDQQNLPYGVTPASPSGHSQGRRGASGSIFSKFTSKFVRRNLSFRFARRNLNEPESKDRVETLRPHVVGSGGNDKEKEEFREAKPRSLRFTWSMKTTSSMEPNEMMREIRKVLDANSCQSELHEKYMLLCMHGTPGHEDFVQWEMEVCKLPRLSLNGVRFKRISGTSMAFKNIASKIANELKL

[3] = target: Death-associated protein kinase 1 (Homo sapiens, UniProt P53355); assay: Selectivity interaction (KinomeScan (DiscoverX)) EUB0000618a DAPK1; conditions: at 10 µM
Death-associated protein kinase 1, sequence (P53355 whole entry, looked up): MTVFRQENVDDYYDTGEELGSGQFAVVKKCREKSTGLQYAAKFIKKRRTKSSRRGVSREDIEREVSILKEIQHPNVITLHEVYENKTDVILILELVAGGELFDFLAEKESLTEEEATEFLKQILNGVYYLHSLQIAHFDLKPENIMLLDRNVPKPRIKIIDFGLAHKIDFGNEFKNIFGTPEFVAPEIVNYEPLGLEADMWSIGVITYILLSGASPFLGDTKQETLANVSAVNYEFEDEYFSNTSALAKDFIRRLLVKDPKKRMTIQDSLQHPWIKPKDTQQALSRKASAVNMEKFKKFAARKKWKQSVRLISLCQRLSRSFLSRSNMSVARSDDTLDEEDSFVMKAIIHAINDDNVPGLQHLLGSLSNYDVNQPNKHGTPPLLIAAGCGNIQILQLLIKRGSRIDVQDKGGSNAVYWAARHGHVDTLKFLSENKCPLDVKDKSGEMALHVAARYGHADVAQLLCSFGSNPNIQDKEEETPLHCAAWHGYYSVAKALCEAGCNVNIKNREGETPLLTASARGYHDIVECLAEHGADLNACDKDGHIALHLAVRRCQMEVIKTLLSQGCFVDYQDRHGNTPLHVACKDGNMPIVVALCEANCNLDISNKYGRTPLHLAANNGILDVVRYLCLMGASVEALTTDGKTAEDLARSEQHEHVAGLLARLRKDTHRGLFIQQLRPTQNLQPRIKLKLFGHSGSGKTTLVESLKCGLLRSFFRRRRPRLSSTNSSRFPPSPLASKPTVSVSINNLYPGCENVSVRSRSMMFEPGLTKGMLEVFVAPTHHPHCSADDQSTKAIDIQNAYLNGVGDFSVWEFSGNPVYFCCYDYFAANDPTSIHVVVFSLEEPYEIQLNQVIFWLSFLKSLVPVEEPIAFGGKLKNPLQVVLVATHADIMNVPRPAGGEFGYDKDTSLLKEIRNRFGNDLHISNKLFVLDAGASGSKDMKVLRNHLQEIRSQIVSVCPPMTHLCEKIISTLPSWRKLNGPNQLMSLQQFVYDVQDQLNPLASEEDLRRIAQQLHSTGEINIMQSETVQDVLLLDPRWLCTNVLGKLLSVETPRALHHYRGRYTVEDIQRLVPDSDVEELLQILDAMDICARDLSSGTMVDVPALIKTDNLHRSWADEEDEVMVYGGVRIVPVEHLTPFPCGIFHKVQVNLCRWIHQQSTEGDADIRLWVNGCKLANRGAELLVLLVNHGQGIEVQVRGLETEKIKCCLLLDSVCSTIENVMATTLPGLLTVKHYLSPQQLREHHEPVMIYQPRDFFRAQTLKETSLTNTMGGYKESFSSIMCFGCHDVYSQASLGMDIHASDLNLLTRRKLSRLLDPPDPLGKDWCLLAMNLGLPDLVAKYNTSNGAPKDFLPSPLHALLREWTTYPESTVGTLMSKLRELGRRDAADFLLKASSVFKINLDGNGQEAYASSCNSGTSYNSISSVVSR

Aurora kinase B = Aurora kinase B (Homo sapiens, UniProt Q96GD4); assay: Selectivity interaction (KinomeScan (DiscoverX)) EUB0000045b AURKB
Aurora kinase B, sequence (Q96GD4 whole entry): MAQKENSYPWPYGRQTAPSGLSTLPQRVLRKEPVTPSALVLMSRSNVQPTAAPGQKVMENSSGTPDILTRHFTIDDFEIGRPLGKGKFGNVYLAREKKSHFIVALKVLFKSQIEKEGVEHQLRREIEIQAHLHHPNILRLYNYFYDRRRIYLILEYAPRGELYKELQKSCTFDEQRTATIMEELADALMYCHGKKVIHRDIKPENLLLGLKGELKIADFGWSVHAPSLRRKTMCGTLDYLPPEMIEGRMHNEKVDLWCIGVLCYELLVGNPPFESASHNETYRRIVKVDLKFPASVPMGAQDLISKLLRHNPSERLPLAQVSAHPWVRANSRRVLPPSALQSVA

[4] = target: T2, Phosphatidylinositol 5-phosphate 4-kinase type-2 alpha (Homo sapiens) (UniProt P48426); assay: Selectivity interaction (Kinase panel (KiNativ target engagement assay in Jurkat cells)) EUB0001635a PIP4K2A; assay type: cell-based; conditions: Selectivity number of off-targets 0.0, Selectivity number of targets 233.0, Source Knowledge https://www.sciencedirect.com/science/article/pii/S2451945619300674?via%3Dihub, at 1 µM
T2 sequence (whole entry): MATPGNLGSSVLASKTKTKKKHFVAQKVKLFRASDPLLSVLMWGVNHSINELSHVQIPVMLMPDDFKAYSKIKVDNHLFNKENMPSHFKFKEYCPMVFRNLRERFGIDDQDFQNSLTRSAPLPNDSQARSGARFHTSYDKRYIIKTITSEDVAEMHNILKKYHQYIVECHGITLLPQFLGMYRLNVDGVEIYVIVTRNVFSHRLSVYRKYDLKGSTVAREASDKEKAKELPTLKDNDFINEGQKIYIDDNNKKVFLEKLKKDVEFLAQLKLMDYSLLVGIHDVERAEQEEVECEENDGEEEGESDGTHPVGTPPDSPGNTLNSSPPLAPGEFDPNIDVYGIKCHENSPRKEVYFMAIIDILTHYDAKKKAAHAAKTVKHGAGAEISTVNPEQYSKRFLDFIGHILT

[5] = target: T3, Myosin light chain kinase family member 4 (Homo sapiens) (UniProt Q86YV6); assay: Selectivity interaction (KinomeScan (DiscoverX)) EUB0000229b MYLK4; conditions: at 10 µM
T3 sequence (whole entry): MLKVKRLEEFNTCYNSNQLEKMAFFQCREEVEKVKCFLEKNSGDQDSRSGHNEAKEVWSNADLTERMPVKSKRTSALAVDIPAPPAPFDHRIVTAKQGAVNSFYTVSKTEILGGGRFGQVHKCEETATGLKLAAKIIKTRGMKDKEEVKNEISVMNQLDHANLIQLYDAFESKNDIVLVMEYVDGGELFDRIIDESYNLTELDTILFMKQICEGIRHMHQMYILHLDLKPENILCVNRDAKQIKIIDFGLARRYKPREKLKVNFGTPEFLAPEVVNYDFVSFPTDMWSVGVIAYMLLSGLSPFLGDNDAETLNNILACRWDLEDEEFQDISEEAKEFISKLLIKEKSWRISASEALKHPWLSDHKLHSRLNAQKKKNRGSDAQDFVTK

[6] = target: Calcium/calmodulin-dependent protein kinase type II subunit delta (Homo sapiens) (UniProt Q13557); assay: Selectivity interaction (KinomeScan (DiscoverX)) EUB0001049a CAMK2D; conditions: at 1 µM
Calcium/calmodulin-dependent protein kinase type II subunit delta (Homo sapiens), sequence (Q13557 whole entry): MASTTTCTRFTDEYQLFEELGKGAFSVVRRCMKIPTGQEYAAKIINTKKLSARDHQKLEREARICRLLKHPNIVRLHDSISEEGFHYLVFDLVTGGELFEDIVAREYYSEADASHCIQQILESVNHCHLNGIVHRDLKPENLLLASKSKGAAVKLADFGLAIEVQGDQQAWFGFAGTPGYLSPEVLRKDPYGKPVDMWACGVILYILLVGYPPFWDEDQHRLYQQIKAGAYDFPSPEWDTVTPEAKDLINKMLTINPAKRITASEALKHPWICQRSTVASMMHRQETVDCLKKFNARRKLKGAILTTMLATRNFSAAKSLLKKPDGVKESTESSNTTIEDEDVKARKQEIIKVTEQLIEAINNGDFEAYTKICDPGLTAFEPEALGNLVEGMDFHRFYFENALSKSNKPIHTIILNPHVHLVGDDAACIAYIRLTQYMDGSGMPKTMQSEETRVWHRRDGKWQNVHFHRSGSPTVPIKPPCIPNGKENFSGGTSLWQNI

[7] = target: T4, Ephrin type-B receptor 3 (Homo sapiens) (UniProt P54753); assay: Selectivity interaction (Kinase panel (Z-LYTE Assay)) EUB0001632a EPHB3; conditions: at 10 µM
T4 sequence (whole entry): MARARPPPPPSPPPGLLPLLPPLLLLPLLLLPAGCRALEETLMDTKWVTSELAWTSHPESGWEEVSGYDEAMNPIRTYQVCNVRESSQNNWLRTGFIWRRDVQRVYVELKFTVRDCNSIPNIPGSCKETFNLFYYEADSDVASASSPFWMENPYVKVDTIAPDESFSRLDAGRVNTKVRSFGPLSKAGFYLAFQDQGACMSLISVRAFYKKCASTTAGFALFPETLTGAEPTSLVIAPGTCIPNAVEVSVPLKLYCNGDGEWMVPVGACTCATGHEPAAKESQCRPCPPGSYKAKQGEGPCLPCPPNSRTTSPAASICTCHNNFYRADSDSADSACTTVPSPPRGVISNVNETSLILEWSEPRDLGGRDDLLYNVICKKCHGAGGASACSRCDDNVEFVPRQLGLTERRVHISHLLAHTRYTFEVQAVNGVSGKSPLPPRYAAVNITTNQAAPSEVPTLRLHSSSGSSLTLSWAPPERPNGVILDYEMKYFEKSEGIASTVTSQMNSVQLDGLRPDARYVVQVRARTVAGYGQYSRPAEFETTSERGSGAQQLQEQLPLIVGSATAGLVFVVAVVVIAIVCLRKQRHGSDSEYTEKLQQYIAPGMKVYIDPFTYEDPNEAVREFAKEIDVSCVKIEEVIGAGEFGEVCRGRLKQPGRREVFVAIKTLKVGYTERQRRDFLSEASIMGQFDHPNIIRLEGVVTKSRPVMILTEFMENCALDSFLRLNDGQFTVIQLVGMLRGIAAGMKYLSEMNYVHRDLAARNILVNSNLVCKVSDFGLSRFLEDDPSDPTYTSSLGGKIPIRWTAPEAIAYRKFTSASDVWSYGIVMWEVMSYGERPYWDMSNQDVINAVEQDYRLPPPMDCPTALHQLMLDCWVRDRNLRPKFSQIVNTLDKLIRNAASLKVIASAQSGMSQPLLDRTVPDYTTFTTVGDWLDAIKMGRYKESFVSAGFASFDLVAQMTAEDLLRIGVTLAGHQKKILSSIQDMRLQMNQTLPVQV

Compound: CN(C)C/C=C/C(=O)Nc1ccc(C(=O)N2CCCC(Nc3ncc(Cl)c(-c4c[nH]c5ccccc45)n3)C2)cc1 (centres undefined)
- % of control [1]: 65%

- % of control [2]: 116%
Compound: CC(=O)Nc1cccc(-n2c(=O)n(C3CC3)c(=O)c3c(Nc4ccc(I)cc4F)n(C)c(=O)c(C)c32)c1

Compound: O[C@H]1CC[C@H](Nc2ncc3nc(Nc4c(F)cc(F)cc4F)n([C@H]4CCOC4)c3n2)CC1
- % of control [3]: 95%

Compound: C=CC(=O)Nc1cc(-n2c(=O)ccc3cnc4ccc(-c5ccc(NS(C)(=O)=O)cc5)cc4c32)ccc1C
- % of control (Aurora kinase B; at 1 µM): 100%
- % of control (Aurora kinase B; at 10 µM): 75%

Compound: C=CC(=O)Nc1ccc(C(=O)Nc2[nH]nc3c2CN(C(=O)N[C@H](CN(C)C)c2ccccc2)C3(C)C)cc1
- % of engagement [4]: -3.2%

Compound: COc1cc(N(C)c2ccnc3ccc(C(F)(F)F)cc23)cc(OC)c1OC
- % binding [5]: 98%

Compound: COc1cc(Nc2nc(C)cc(-c3cnn4nc(OC)ccc34)n2)cc(C(F)(F)F)c1
- % of control [6]: 100%

- % of control [7]: 2.4%
Compound: Cn1cc(-n2cnc3c(NCc4nc5cc(Cl)c(Cl)cc5[nH]4)nc(N4CCOCC4)nc32)cn1
